Values of other authors as cited in publication PMC3618964 (Journal of medicinal chemistry, 2010).

Target: SaDHFR
Conditions: read-out: Ki value (SaDHFR)

Compound: CCc1nc(N)nc(N)c1C#CCc1cc(OC)ccc1OC [Compound 9]
- Ki: 9.9 nM
